Patent US20210318274A1, “METHODS FOR EVALUATING LIVER FUNCTION” (HepQuant, LLC, priority 2020, published 2021)
Where two headings read alike, the source gives them in different places.

Assays:
[1] = Antipyrine clearance by Child-Pugh and DSI; format: in vivo, human
Excerpt: Antipyrine is an analgesic and antipyretic. […] Antipyrine may be used in testing the effects of other drugs or diseases on drug-metabolizing enzymes in the liver, such as various cytochrome p450 (CYP) enzymes, for example, as shown in Table 22.

[2] = cited from earlier work
[3] = set-up: species or system human; conditions: in vivo
Procedure: In some embodiments, the distinguishable compound is galactose. Galactose elimination capacity (GEC) has been used as an index of residual hepatic function. Galactose in the GEC test typically is administered intravenously at a dose of […] and venous samples taken every 5 min between 20 and 60 minutes. The clearance of galactose is decreased in individuals with chronic liver disease and cirrhosis. The fact that this carbohydrate has a high extraction ratio, however, makes the metabolism of galactose dependent on liver blood flow and hepatic functional mass. […] The carbohydrate galactose is metabolized almost exclusively in the liver, and the elimination rate at blood concentrations high enough to yield near-saturated enzymatic conversion, the GEC is used as a quantitative measure of the metabolic capacity of the liver. One study has shown that among patients with a newly-diagnosed cirrhosis and a decreased GEC, the GEC was a strong predictor of mortality. (Jepsen et al, 2009, The galactose elimination capacity and mortality in 781 Danish patients with newly-diagnosed liver cirrhosis: a cohort study. BMC Gastroenterol. 2009, 9:50).

[4] = individuals with chronic liver disease and cirrhosis; cited from earlier work
[5] = Lidocaine MEGX 15 min concentration by Child-Pugh and DSI; format: in vivo, human; conditions: by DSI score group (5-15, 15-25, 25-35, 35-45)
Procedure: Lidocaine elimination and MEGX (monoethylglycinexylidide) formation after oral lidocaine administration may be used as a quantitative assessment of liver function. […] MEGX 15 minute concentrations.

[6] = in vivo
Excerpt: The present inventors analyzed the relationship of DSI to pharmacokinetic parameters of various classes of drugs.
Methionine is an essential amino acid in humans, and is the substrate for other amino acids such as cysteine or taurine. Methionine also may be used to prevent liver toxicity in acetaminophen (Tylenol) poisoning, to increase acidity of urine, treat liver disorders, or improve wound healing. […] The methionine breath test may involve orally administered ^13C-methionine to detect hepatic mitochondrial dysfunction by evaluating level of ^13CO2 exhalation. ^13C methionine breath test may be used to monitor hepatic mitochondrial oxidation and drug-related mitochondrial toxicity in vivo, for example, to detect antiretroviral drug-related mitochondrial toxicity.

[7] = Obeticholic acid plasma exposure versus DSI, clinical trial in NASH; format: in vivo, human; conditions: NASH patients, fibrosis F1 to compensated F4
Excerpt: Obeticholic acid (OCA) is a Farnesoid X Receptor (FXR) agonist, bile acid analog of chenodeoxycholic acid that is FDA approved for treatment of primary biliary cholangitis, and is being studied for use in treating other hepatic diseases and conditions. […] The circles are observed data; red lines are linear regression fit. OCA=Obeticholic acid. […] DSI correlates with OCA PK both at baseline (day 1) and at day 85.

For `Cc1cc(=O)n(-c2ccccc2)n1C` [Antipyrine], the Average antipyrine clearance ([1]; Child-Pugh class B versus CP A5 and CP A6 patients) was “decreased average antipyrine clearance”, the Average antipyrine clearance ([1]; by DSI score group (5-15, 15-25, 25-35, 35-45)) was “reduced average antipyrine clearance” and the Average antipyrine clearance ([1]; by DSI score group (5-15, 15-25, 25-35, 35-45), listed as antipyrine) was “lowest PK average values”. The “First pass hepatic extraction (qualitative)” value (from here on “First pass hepatic extraction”) ([2]; in vivo) was “low first pass hepatic metabolism”.
For `O=C[C@H](O)[C@@H](O)[C@@H](O)[C@H](O)CO` [Galactose], the “Average galactose elimination capacity” value [3] is listed as “decreased average galactose elimination capacity”, the Clearance of galactose [4] is listed as “decreased” and the “First pass hepatic extraction” value ([2]; substrate characterisation) is listed as “relatively high first pass hepatic extraction”.
For `CCN(CC)CC(=O)Nc1c(C)cccc1C` [Lidocaine], the “Average MEGX 15 min concentration following lidocaine” value [5] is given as “lowest PK average values” and the “First pass hepatic extraction” value ([2]; substrate characterisation) is given as “relatively high first pass hepatic extraction”.
In the case of `CSCC[C@H](N)C(=O)O` [Methionine], the “Average ^13CO2 exhalation score (methionine breath test)” value ([6]; human) is reported as “reduced average ^13CO2 exhalation score”, the “Average ^13CO2 exhalation score (methionine breath test)” value [6] is reported as “lowest PK average values” and the “Average methionine breath test value” [6] is reported as “decreased average methionine breath test values”. The “First pass hepatic extraction” value ([2]; substrate characterisation) was “relatively low first pass hepatic extraction”.
In the case of `CC[C@H]1[C@@H](O)[C@@H]2[C@H](CC[C@]3(C)[C@@H]([C@H](C)CCC(=O)O)CC[C@@H]23)[C@@]2(C)CC[C@@H](O)C[C@@H]12` [Obeticholic acid, 6alpha-ethyl-chenodeoxycholic acid], the “Plasma exposure in relation to DSI” value [7] is reported as “related to DSI measurement”.
